We go through two compounds from patent US20050014754A1, “Fused pyrrole compounds” (priority 2003, published 2005).

One assay has as its system TNFα. The assay is described as follows: In-vitro assay measuring TNFα inhibition (LPS-stimulated human PBMC, ELISA). The class given is cell-based. The following applies: human PBMC stimulated with LPS 1 μg/mL, supernatant after 18 h, read-out: IC50, inhibition of TNFα production. The protocol: Reagents. Lipopolysaccharide (LPS, Serratia marscencens) was obtained from Sigma (St. Louis, Mo.). RPMI-1640 medium and fetal calf serum (FCS) were purchased from the ATCC (Manassas, Va.).
Assay. Human peripheral blood cells (PBMC) were isolated by centrifugation using Ficoll-Paque (Pharmacia Biotech, Uppsala, Sweden) and suspended in RPMI-1640 medium supplemented with 10% FCS, 100 U/mL penicillin, and 100 μg/mL streptomycin. The cells were then plated in the wells of a 96-well plate at a concentration of 5×10^5 cells/well, and stimulated by adding LPS (1 μg/mL). Each test compound was dissolved in DMSO and added to the wells. The final DMSO concentration was adjusted to 0.25% in all cultures, including the compound-free control, and the concentrations of each test compound ranged from 0 to 10 μM. Cell-free supernatants were taken 18 h later for measurement of cytokines. Cell viability was assessed using the bioreduction of MTS [3-(4,5-dimethylthiazol-2-yl)-5-(3-carboxymethoxyphenyl)-2-(4-sulophenyl)-2H-tetrazolium] after 18 h and 48 h. Cell survival was estimated by determining the ratio of the absorbance in each of the compound-treated cultures to that in the compound-free control.
The supernatant was assayed for the amount of TNFα by using an ELISA assay with anti-human TNFa antibodies (Cell Sciences, Norwood, Mass.). The assay was carried out following the manufacturer's instructions.
On the technique in general: ELISA stands for enzyme-linked immunosorbent assay.

Assay [1] relates to MDA435 (human breast cancer). The assay is described as follows: In-vitro assay measuring anti-cancer activity (MTS assay). The class given is cell-based. The following applies: MDA435 cells, 72 hours incubation, read-out: IC50, concentration required to inhibit 50% tumor cell growth. Here is the method:
In vitro anti-cancer activity was determined in human cancer cell line MDA435 (human breast cancer), obtained from ATCC (American Type of Culture Collection).
The cell line was maintained in RPMI1640(GIBCO) supplemented with 10% FCS, 100 units/ml penicillin, 100 ug/ml streptomycin, and 2 mM L-glutamine. The cells were split every third day and diluted to a concentration of 2×10^5 cells/ml one day before experiment. The experiment was performed on exponentially growing cell culture. Cell densities were 2.5×10^4 cells/ml in this experiment.
A stock solution of Compound (I-4) was prepared by dissolving the compound at a concentration of 1 mM in 100% DMSO. Final concentrations were obtained by diluting the stock solution directly into the tissue culture medium. Cells were incubated with varying concentrations of the compound for 72 hours and the IC50 was determined by MTS (i.e. 3-(4.5.-dimethylthiazol-2-yl)-2.5-diphenyl tetrazolium bromide) assay. In this experiment, IC50 stands for the concentration of compound required to inhibit 50% tumor cell growth. Compound (I-4) provided an IC50 value of about 1 μM.
In general terms: Tetrazolium assays rely on reduction of a dye to a coloured formazan, in cell work by metabolically active cells.

In another assay the test system is PDE4. The assay is described as follows: In-vitro assay measuring PDE4 inhibition (PDE4 from U937 human monocytic cells, [3H]-cAMP SPA). In kind it is biochemical. The following applies: 23 nM [3H]-cAMP, 37° C., 30 min. Here is the method: PDE4 was prepared from U937 human monocytic cells according to the method of Tenor et al. (Clin Exp Allegy (1995) 25:625-633). Briefly, U937 cells were homogenized in a mixture of pH 7.4 containing 10 mM Hepes, 1 mM b-mercaptoethanol, 1 mM MgCl2, 1 mM EGTA, 137 mM NaCl, 2.7 mM KCl, 1.5 mM KH2PO4, 8.1 mM Na2HPO4, 5 μM pepstain A, 10 μM leupeptin, 50 μM PMSF, 10 μM soybean trypsin inhibitor, and 2 mM benzamindine. The homogenate was centrifuged at 200,000×g for 30 min. PDE4 activity in the supernatant was assayed in a 200 μl reaction containing 40 mM Tris-HCl, pH 7.5, 23 nM [^3H]-adenosine 3′,5′ cyclic monophosphate (cAMP), 8.3 mM MgCl2, 1.7 mM EGTA, 0.25% DMSO, and a testing compound. The assay mixture was incubated at 37° C. for 30 min and the reaction was terminated by the addition of 100 μl of yttrium silicate SPA beads (Amersham Pharmacia Biotech, Piscataway, N.J.) suspended in 18 mM ZnSO4. The assay mixture was rotated for 3 min to ensure the binding of [^3H]-5′adenosine monophosphate to the beads. Finally, the beads was spun down, washed twice with 6 mM ZnSO4, resuspended in 100 μl of 0.1 N NaOH, and then counted for radioactivity in a liquid scintillation counter.

With `O=C(Nc1c(Cl)c[n+]([O-])cc1Cl)C(=O)c1cc(Cc2ccc(F)cc2)n2ncccc12` [Compound I-4, N-(3,5-Dichloro-1-oxy-pyridin-4-yl)-2-[7-(4-fluoro-benzyl)-pyrrolo[1,2-b]pyridazin-5-yl]-2-oxo-acetamide], the IC50 was ~50 nM with TNFα, ~1000 nM in assay [1] and ~5 nM in the assay with PDE4.

Consider `Cc1cc(NC(=O)C(=O)c2cc(Cc3ccc(C#N)cc3)n3ccsc23)sn1` [Compound I-10, 2-[5-(4-Cyano-benzyl)-pyrrolo[2,1-b]thiazol-7-yl]-N-(3-methyl-isothiazol-5-yl)-2-oxo-acetamide], for which, in the assay on TNFα, the IC50 is ~1000 nM.
